One experiment addresses T1, human TLR8 (Homo sapiens, UniProt Q9NR97).
T1 construct: host or cells: human HEK-Blue cells (HEK293-derived) co-expressing TLR8 and an NF-kB/AP1-inducible SEAP reporter
T1 sequence (Q9NR97 27-1041): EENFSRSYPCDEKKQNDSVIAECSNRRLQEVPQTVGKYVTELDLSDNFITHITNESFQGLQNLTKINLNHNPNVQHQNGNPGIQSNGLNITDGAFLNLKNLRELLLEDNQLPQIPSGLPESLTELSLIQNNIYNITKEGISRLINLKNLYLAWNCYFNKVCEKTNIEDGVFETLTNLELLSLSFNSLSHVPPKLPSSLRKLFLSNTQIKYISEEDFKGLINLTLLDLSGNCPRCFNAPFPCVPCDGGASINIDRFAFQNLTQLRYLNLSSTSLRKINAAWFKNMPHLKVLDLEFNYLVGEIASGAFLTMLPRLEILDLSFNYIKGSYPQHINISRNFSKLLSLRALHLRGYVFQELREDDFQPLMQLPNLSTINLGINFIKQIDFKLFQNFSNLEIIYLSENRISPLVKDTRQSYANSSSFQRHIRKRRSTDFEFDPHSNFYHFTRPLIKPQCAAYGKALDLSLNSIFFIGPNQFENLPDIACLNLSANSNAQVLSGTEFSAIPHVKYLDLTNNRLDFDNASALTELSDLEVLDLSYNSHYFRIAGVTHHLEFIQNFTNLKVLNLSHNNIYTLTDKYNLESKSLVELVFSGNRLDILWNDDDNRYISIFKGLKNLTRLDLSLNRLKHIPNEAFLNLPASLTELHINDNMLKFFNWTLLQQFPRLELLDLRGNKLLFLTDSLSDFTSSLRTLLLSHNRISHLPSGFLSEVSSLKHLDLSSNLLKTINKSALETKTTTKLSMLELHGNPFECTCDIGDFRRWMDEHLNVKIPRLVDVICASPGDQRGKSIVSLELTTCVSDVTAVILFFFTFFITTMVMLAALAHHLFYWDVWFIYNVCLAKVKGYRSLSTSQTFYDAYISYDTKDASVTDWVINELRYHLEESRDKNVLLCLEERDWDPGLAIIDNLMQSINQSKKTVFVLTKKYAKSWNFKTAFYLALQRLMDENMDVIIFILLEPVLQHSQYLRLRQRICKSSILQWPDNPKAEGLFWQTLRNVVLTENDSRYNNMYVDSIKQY
Briefly: In vitro human TLR8 binding reporter assay (HEK-Blue, NF-kB/AP1-inducible SEAP). In kind it is cell-based. The following applies: HEK-Blue human TLR8 SEAP reporter cells; activity range classes; read-out: TLR8 Agonist EC50. As for the experimental part: (§1) In Vitro Human TLR7 and TLR8 Binding Reporter Assays
(§2) Logarithmically-growing human HEK-Blue cells co-expressing a TLR7 or TLR8 gene and a NF-kB/AP1-inducible SEAP (secreted embryonic alkaline phosphatase; Invivogen, San Diego, CA) reporter gene are added to individual wells of a 384-well plate (15,000 cells per 20 μL per well) and maintained for 24 h at 37° C., 5% CO2. Test compounds or DMSO are distributed to separate wells the next day using acoustic liquid handling technology (100 nL per well) and cells are subsequently incubated for 18 h at 37° C., 5% CO2. Cellular SEAP production is measured using an Envision plate reader instrument thirty minutes after adding freshly-made Quanti-Blue reagent (prepared by following manufacturer instructions; Invivogen, San Diego, CA) to the HEK-Blue TLR Nf-kB-SEAP cell reactions. All EC50 values (half-maximal effective concentration) are determined using proprietary data analysis software. Normalized EC50 value=absolute value determined by setting 100% Ymax using a reference standard RLU (relative light unit) values from cells treated with 50 μM of the reference standard.
In general terms: In a reporter assay the amount or activity of a reporter protein is the signal.

For the next experiment, the target named is T2, human TLR7 (Homo sapiens, UniProt Q9NYK1).
T2 construct: host or cells: human HEK-Blue cells (HEK293-derived) co-expressing TLR7 and an NF-kB/AP1-inducible SEAP reporter
T2 sequence (Q9NYK1 27-1049): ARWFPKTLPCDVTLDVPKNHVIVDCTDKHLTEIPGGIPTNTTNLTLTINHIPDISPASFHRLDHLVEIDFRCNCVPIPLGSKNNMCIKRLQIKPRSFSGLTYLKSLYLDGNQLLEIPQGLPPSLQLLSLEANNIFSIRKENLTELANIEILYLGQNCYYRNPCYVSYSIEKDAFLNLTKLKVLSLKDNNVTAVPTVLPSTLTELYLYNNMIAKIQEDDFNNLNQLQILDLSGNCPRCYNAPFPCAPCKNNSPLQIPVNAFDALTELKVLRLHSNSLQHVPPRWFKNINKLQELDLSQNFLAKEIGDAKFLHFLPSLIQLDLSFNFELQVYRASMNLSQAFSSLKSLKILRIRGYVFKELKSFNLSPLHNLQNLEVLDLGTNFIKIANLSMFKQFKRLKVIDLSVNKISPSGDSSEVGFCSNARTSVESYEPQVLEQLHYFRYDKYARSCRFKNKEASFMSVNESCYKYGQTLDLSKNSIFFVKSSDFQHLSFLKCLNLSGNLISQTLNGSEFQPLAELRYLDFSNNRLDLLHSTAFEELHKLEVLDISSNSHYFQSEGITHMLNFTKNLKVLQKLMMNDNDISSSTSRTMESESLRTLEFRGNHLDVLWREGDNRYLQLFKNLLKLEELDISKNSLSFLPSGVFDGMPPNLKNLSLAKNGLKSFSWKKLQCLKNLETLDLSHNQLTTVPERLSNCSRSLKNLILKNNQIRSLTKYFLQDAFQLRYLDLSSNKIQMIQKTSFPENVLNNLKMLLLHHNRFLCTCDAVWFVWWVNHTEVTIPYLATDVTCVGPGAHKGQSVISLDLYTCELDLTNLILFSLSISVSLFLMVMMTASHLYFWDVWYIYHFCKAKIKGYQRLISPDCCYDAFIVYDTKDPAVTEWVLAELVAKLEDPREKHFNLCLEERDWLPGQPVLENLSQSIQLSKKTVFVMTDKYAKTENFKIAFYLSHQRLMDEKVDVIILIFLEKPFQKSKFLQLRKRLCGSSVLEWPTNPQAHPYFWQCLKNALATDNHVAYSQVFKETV
In words: In vitro human TLR7 binding reporter assay (HEK-Blue, NF-kB/AP1-inducible SEAP). The class given is cell-based. The following applies: HEK-Blue human TLR7 SEAP reporter cells; activity range classes; read-out: TLR7 Agonist EC50. As for the experimental part: as §1, §2

For experiment [1], the system named is IL-1β production in PMA-differentiated THP-1 cells. In words: Measurement of IL-1β production in PMA-differentiated THP-1 cells (ELISA, 4 hours). The following applies: Homo sapiens, THP-1, human IL-1β production, assayed using one or more of the described procedures, read-out: NLRP3 hIL1B IC50. In kind it is cell-based, human. The protocol:
Measurement of IL-1β Production in PMA-Differentiated THP-1 Cells THP-1 cells were purchased from the American Type Culture Collection and sub-cultured according to instructions from the supplier. Prior to experiments, cells were cultured in RPMI 1640 containing 10% heat inactivated FBS, penicillin (100 units/ml) and streptomycin (100 μg/ml), and maintained in log phase prior to experimental setup. Prior to the experiment THP-1 were treated with PMA (Phorbol 12-myristate 13-acetate) (10 μg/ml) for 24 hours. The day of the experiment the media was removed and attaching cells were treated with trypsin for 2 minutes, cells were then collected, washed with PBS (phosphate buffer saline), spin down, resuspended in 2% heat inactivated FBS with RPMI at a concentration of 1×10^6 cells/ml, and 100 μl was plated in a 96 well plate. Compounds were dissolved in dimethyl sulfoxide (DMSO) and added to the culture medium to achieve desired concentration (e.g. 100, 30, 10, 3, 1, 0.3 or 0.1 μM). Cells were incubated with compounds for 4 hours. Cell free supernatant was collected and the production of IL-1β was evaluated by ELISA. A vehicle only control was run concurrently with each experiment. Final DMSO concentration was 1%.
In general terms: In an ELISA, binding on a coated surface is turned into a signal by an enzyme label.

Usually EC50 stands for the concentration giving half of the maximal effect. The IC50 is the concentration that gives 50% inhibition. For `Nc1cc(NC[C@@H]2CNCCO2)c2ccc(-c3ccn[nH]3)cc2n1` [Compound 267], the EC50 on human TLR8 and on human TLR7 was > 100 µM each time. Besides, the IC50 in experiment [1] is 1.59 µM.

On to `Nc1cc(NCCCNC(=O)c2cccnc2)c2ccc(-c3ccn[nH]3)cc2n1` [Compound 212], for which the EC50 on human TLR8 and at human TLR7 was > 100 µM each time. Further, the IC50 in experiment [1] was determined as 9.27 µM.

With `Nc1cc(OCCCO)c2ccc(-c3ccn[nH]3)cc2n1` [Compound 179], the half-maximal effective concentration (EC50) at human TLR8 and at human TLR7 was > 100 µM each time. Also, the IC50 in experiment [1] worked out at 0.78 µM.

For the molecule `Nc1cc(NCCC2CCOCC2)c2ccc(-c3cc[nH]n3)cc2n1` [Compound 344, 7-(1H-pyrazol-3-yl)-N4-(2-(tetrahydro-2H-pyran-4-yl)ethyl)quinoline-2,4-diamine], the 50% effective concentration (EC50) at human TLR8 and on human TLR7 was > 100 µM throughout. In addition, in experiment [1], the IC50 was found to be 1.11 µM.

Turning to `Cn1cnc(CNc2cc(N)nc3cc(-c4ccn[nH]4)ccc23)c1` [Compound 243], the EC50 on human TLR8 and on human TLR7 was > 100 µM each time. For the same molecule, the IC50 in experiment [1] amounted to 1.02 µM.

Take `Cc1ncsc1CCNc1cc(N)nc2cc(-c3ccn[nH]3)ccc12` [Compound 239]: the EC50 at human TLR8 and on human TLR7 was > 100 µM in each case. Moreover, in experiment [1], the IC50 was found to be 4.83 µM.

`Nc1cc(NCc2ccccn2)c2ccc(-n3cccn3)cc2n1` [Compound 300]: the EC50 on human TLR8 and on human TLR7 was > 100 µM each time. Moreover, the IC50 in experiment [1] is 0.54 µM.

Take `Nc1cc(NCCC2CCOCC2)c2ccc(-n3cccn3)cc2n1` [Compound 346, 7-(1H-pyrazol-1-yl)-N4-(2-(tetrahydro-2H-pyran-4-yl)ethyl)quinoline-2,4-diamine]: the EC50 at human TLR7 was > 100 µM. Also, in experiment [1], the IC50 amounted to 0.76 µM.

In the case of `CC(=O)NCCOc1cc(N)nc2cc(-n3cccn3)ccc12` [Compound 177, N-(2-((2-amino-7-(1H-pyrazol-1-yl)quinolin-4-yl)oxy)ethyl)acetamide], the EC50 on human TLR8 and on human TLR7 was > 100 µM each time. Besides, the IC50 in experiment [1] is 3.07 µM.

On to `Nc1nc2cc(-c3cc[nH]n3)ccc2cc1CCCCOCc1ccccc1` [Compound 105, 3-[4-(benzyloxy)butyl]-7-(1H-pyrazol-3-yl)quinolin-2-amine], for which the EC50 at human TLR8 and on human TLR7 was > 100 µM in each case. In addition, the IC50 in experiment [1] was 2.98 µM.

As for `Nc1cc(NCCc2cccs2)c2ccc(-c3cc[nH]n3)cc2n1` [Compound 322, 7-(1H-pyrazol-3-yl)-N4-(2-(thiophen-2-yl)ethyl)quinoline-2,4-diamine], the EC50 at human TLR8 and at human TLR7 was > 100 µM throughout. For the same molecule, in experiment [1], the concentration for half-maximal inhibition (IC50) amounted to 0.61 µM.

In the case of `Nc1cc(NCCCNC(=O)c2ccncc2)c2ccc(-c3ccn[nH]3)cc2n1` [Compound 211], the EC50 at human TLR8 and on human TLR7 was > 100 µM each time. Moreover, in experiment [1], the IC50 worked out at 13.5 µM.

As for `Nc1nc2cc(-c3ccn[nH]3)ccc2cc1-c1cccc(CO)n1` [Compound 125], in experiment [1], the half-maximal inhibitory concentration (IC50) turned out to be 1.98 µM.

As for `Nc1nc2cc(-c3ccn[nH]3)ccc2cc1CNCC1CCCO1` (stereo not drawn) [Compound 117], the IC50 in experiment [1] came out at 5.8 µM.

On to `Nc1nc2cc(-c3ccn[nH]3)ccc2cc1C1(CO)CC1` [Compound 120], for which the IC50 in experiment [1] worked out at 4.24 µM.

Take `Nc1cc(NCCCO)c2ccc(-c3ccn[nH]3)cc2n1` [Compound 171]: on human TLR8, the EC50 was > 100 µM. In experiment [1], the IC50 is 0.38 µM.

For `Cc1n[nH]c(-c2cc3ccc(-c4ccn[nH]4)cc3nc2N)n1` [Compound 126], the IC50 in experiment [1] was 3.53 µM.

On to `Nc1nc2cc(-c3ccn[nH]3)ccc2cc1CCN1CCOCC1` [Compound 121], for which the concentration giving a half-maximal response (EC50) on human TLR8 is > 100 µM. In addition, the IC50 in experiment [1] came out at 3.03 µM.

For `Nc1nc2cc(-c3ccn[nH]3)ccc2cc1-c1cnc[nH]1` [Compound 123, 3-(1H-imidazol-5-yl)-7-(1H-pyrazol-5-yl)quinolin-2-amine], the IC50 in experiment [1] stood at 3.01 µM.

Consider `CN1CCN(CCc2cc3ccc(-c4ccn[nH]4)cc3nc2N)CC1` [Compound 122], for which the IC50 in experiment [1] came to 1.87 µM.

Turning to `CN1CCN(c2cc(N)nc3cc(-c4ccn[nH]4)ccc23)CC1` [Compound 130], on human TLR8, the EC50 is > 100 µM. In experiment [1], the IC50 was 2.76 µM.

For the molecule `CN1CCN(CCCCOc2cc(N)nc3cc(-c4ccn[nH]4)ccc23)CC1` [Compound 184], at human TLR8, the EC50 is > 100 µM. Also, the IC50 in experiment [1] came to 7.27 µM.

As for `Nc1cc(OCCCN2CCCC2=O)c2ccc(-c3ccn[nH]3)cc2n1` [Compound 181], the EC50 at human TLR8 was > 100 µM. Moreover, the IC50 in experiment [1] is 9.92 µM.

For `CN(C)CCCNc1cc(N)nc2cc(-c3ccn[nH]3)ccc12` [Compound 168, N4-(3-(dimethylamino)propyl)-7-(1H-pyrazol-5-yl)quinoline-2,4-diamine], the EC50 on human TLR8 was > 100 µM. In experiment [1], the IC50 came out at 2.4 µM.

`Nc1cc(CCCOCc2ccccc2)c2ccc(-c3cc[nH]n3)cc2n1` [Compound 108, 4-[3-(benzyloxy)propyl]-7-(1H-pyrazol-3-yl)quinolin-2-amine]: in experiment [1], the IC50 is 1.15 µM.

(Values after patent publication US12171756B2, “NLRP3 modulators” (Innate Tumor Immunity, Inc., priority 2017, dated 2024).)
